Results: PubChem BioAssay AID1259407 (Chemical Carcinogenesis Research Information System (CCRIS), 2018)
Calls of active or inactive are those of the source. The rule behind the calls is not given here.

Test system: CCRIS mutagenicity, Ames/micronucleus/aberration tests
Assay: CCRIS mutagenicity studies

Measured: mutagenic call

CS(C)=O
inactive: End Point: IN VITRO CHROMOSOMAL ABERRATIONS, Test System: CHO-LB CELLS, Metabolic Activation: NONE inactive; negative | End Point: IN VITRO CHROMOSOMAL ABERRATIONS, Test System: CHO-LB CELLS, Metabolic Activation: RAT, LIVER, S-9, AROCLOR 1254 inactive; negative | Test System: AMES SALMONELLA TYPHIMURIUM, Strain/Indicator: TA97, Metabolic Activation: HAMSTER, LIVER, S-9, AROCLOR 1254 (10 OR 30%), Method: PREINCUBATION inactive; negative | Test System: AMES SALMONELLA TYPHIMURIUM, Strain/Indicator: TA97, Metabolic Activation: NONE, Method: PREINCUBATION inactive; negative | Test System: AMES SALMONELLA TYPHIMURIUM, Strain/Indicator: TA97, Metabolic Activation: NONE, Method: PREINCUBATION (20 MIN) inactive; negative | Test System: AMES SALMONELLA TYPHIMURIUM, Strain/Indicator: TA97, Metabolic Activation: NONE, Method: STANDARD PLATE inactive; negative | Test System: AMES SALMONELLA TYPHIMURIUM, Strain/Indicator: TA97, Metabolic Activation: RAT, LIVER, S-9, AROCLOR 1254 (10 OR 30%), Method: PREINCUBATION inactive; negative | Test System: AMES SALMONELLA TYPHIMURIUM, Strain/Indicator: TA97, Metabolic Activation: RAT, LIVER, S-9, AROCLOR 1254, Method: STANDARD PLATE inactive; negative | Test System: AMES SALMONELLA TYPHIMURIUM, Strain/Indicator: TA97, Metabolic Activation: RAT, LIVER, S-9, PHENOBARBITAL AND 5,6-BENZOFLAVONE, Method: PREINCUBATION (20 MIN) inactive; negative | Test System: AMES SALMONELLA TYPHIMURIUM, Strain/Indicator: TA98, Metabolic Activation: HAMSTER, LIVER, S-9, AROCLOR 1254 (10 OR 30%), Method: PREINCUBATION inactive; negative | Test System: AMES SALMONELLA TYPHIMURIUM, Strain/Indicator: TA98, Metabolic Activation: NONE, Method: FLUCTUATION (MICROTITER) inactive; negative | Test System: AMES SALMONELLA TYPHIMURIUM, Strain/Indicator: TA98, Metabolic Activation: NONE, Method: PREINCUBATION inactive; negative | Test System: AMES SALMONELLA TYPHIMURIUM, Strain/Indicator: TA98, Metabolic Activation: NONE, Method: PREINCUBATION (20 MIN) inactive; negative | Test System: AMES SALMONELLA TYPHIMURIUM, Strain/Indicator: TA98, Metabolic Activation: NONE, Method: STANDARD PLATE inactive; negative | Test System: AMES SALMONELLA TYPHIMURIUM, Strain/Indicator: TA98, Metabolic Activation: RAT LIVER S-9, AROCLOR 1254, Method: FLUCTUATION (MICROTITER) inactive; negative | Test System: AMES SALMONELLA TYPHIMURIUM, Strain/Indicator: TA98, Metabolic Activation: RAT, LIVER, S-9, AROCLOR 1254 (10 OR 30%), Method: PREINCUBATION inactive; negative | Test System: AMES SALMONELLA TYPHIMURIUM, Strain/Indicator: TA98, Metabolic Activation: RAT, LIVER, S-9, AROCLOR 1254, Method: STANDARD PLATE inactive; negative | Test System: AMES SALMONELLA TYPHIMURIUM, Strain/Indicator: TA98, Metabolic Activation: RAT, LIVER, S-9, PHENOBARBITAL AND 5,6-BENZOFLAVONE, Method: PREINCUBATION (20 MIN) inactive; negative | Test System: AMES SALMONELLA TYPHIMURIUM, Strain/Indicator: TA100, Metabolic Activation: HAMSTER, LIVER, S-9, AROCLOR 1254 (10 OR 30%), Method: PREINCUBATION inactive; negative | Test System: AMES SALMONELLA TYPHIMURIUM, Strain/Indicator: TA100, Metabolic Activation: NONE, Method: PREINCUBATION inactive; negative | Test System: AMES SALMONELLA TYPHIMURIUM, Strain/Indicator: TA100, Metabolic Activation: NONE, Method: PREINCUBATION (20 MIN) inactive; negative | Test System: AMES SALMONELLA TYPHIMURIUM, Strain/Indicator: TA100, Metabolic Activation: NONE, Method: STANDARD PLATE inactive; negative | Test System: AMES SALMONELLA TYPHIMURIUM, Strain/Indicator: TA100, Metabolic Activation: RAT, LIVER, S-9, AROCLOR 1254 (10 OR 30%), Method: PREINCUBATION inactive; negative | Test System: AMES SALMONELLA TYPHIMURIUM, Strain/Indicator: TA100, Metabolic Activation: RAT, LIVER, S-9, AROCLOR 1254, Method: STANDARD PLATE inactive; negative | Test System: AMES SALMONELLA TYPHIMURIUM, Strain/Indicator: TA100, Metabolic Activation: RAT, LIVER, S-9, PHENOBARBITAL AND 5,6-BENZOFLAVONE, Method: PREINCUBATION (20 MIN) inactive; negative | Test System: AMES SALMONELLA TYPHIMURIUM, Strain/Indicator: TA102, Metabolic Activation: NONE, Method: PREINCUBATION (20 MIN) inactive; negative | Test System: AMES SALMONELLA TYPHIMURIUM, Strain/Indicator: TA102, Metabolic Activation: RAT, LIVER, S-9, PHENOBARBITAL AND 5,6-BENZOFLAVONE, Method: PREINCUBATION (20 MIN) inactive; negative | Test System: AMES SALMONELLA TYPHIMURIUM, Strain/Indicator: TA104, Metabolic Activation: NONE, Method: PREINCUBATION (20 MIN) inactive; negative | Test System: AMES SALMONELLA TYPHIMURIUM, Strain/Indicator: TA104, Metabolic Activation: RAT, LIVER, S-9, PHENOBARBITAL AND 5,6-BENZOFLAVONE, Method: PREINCUBATION (20 MIN) inactive; negative | Test System: AMES SALMONELLA TYPHIMURIUM, Strain/Indicator: TA1535, Metabolic Activation: HAMSTER, LIVER, S-9, AROCLOR 1254 (10 OR 30%), Method: PREINCUBATION inactive; negative | Test System: AMES SALMONELLA TYPHIMURIUM, Strain/Indicator: TA1535, Metabolic Activation: NONE, Method: PREINCUBATION inactive; negative | Test System: AMES SALMONELLA TYPHIMURIUM, Strain/Indicator: TA1535, Metabolic Activation: NONE, Method: PREINCUBATION (20 MIN) inactive; negative
